Reference: patent publication US9518038B2, “Condensation product of theanine derivative and carboxylic acid coumarin derivative, its intermediate, preparation method and use thereof” (SHANDONG YINGDONG YINGHAO BIOTECHNOLOGY, INC., priority 2012, dated 2016)

Tests used:
[1] = tested on: p53; test: Western Blotting, increase of p53 level; assay type: cell-based; settings: liver cancer cells, Lewis lung cancer cells and other cancer cell lines and tumor tissue protein lysates, 48 h treatment, read-out: Effective concentration to increase p53 by 50%
Text: (§1) Antibodies: primary antibodies of VEGFR, EGFR, c-Met, K-Ras, H-Ras, Akt, NF-κB, Cyclin D1, ER-alpha, Dvl-1, Dvl-2, Dvl-3, MMP-9, MMP2, β-catenin, Bcl-2, Bax, p53, p21, E-cadherin and Caspase3 protein, purchased from American Cell Signaling Technology Company and Santa Cruz Technology Company; and H3 acetylation, H4 acetylation and HDAC (HDAC3, HDAC4 and the like) Antibody Sample Kits, purchased from Cell Signaling Technology Company of the U.S.
(§2) (3) polyacrylamide gel electrophoresis (SDS-PAGE): an equal amount of protein lysate sample was used to separate protein, film transfer, and blocking, treated with appropriate primary antibodies and secondary antibodies in sequence, and the film was washed, then the color was developed with ECL kit, and a blot protein band was detected by exposure of an X-ray film; and a Gel-Pro Analyzer was used for quantitative analysis of gray degree, optical density value of the control group and the drug treatment group in various concentration were respectively compared with that of internal reference, the obtained ratios were respectively compared with the control group, and the protein expression level was semi-quantified.

[2] = tested on: human pancreatic cancer cells PANC-1; test: MTT growth inhibition, PANC-1 cells; assay type: cell-based; settings: 72 h after treatment, read-out: Drug concentration (IC50) at which 50% cancer cells survived
Text: (§3) Cell lines and cell culture: human lung cancer cells A549 and H460, human breast cancer cells MCF-7 and MDA-MB-231, human gastric cancer cells BGC-823, human prostate cancer cells PC-3, human chronic leukemia cells K562, human lymphoma cells U937, human liver cancer cells SMMC7721 and HepG2, human colon cancer cells HT29, human pancreatic cancer cells PANC-1 and BxPC3, human cervical cancer Hela cell lines, human brain tumor cells Daoy, human neuroma cells D54 and human oral epidermoid cancer cells KBV200 line with strong drug resistance, mouse melanoma cells B16, and highly metastatic Lewis lung cancer cell lines were purchased from American Type Culture Collection of the U.S. These cells were cultured with DMEM and RPMI-1640 culture solutions separately.
(§4) The procedure was as follows:
(§5) (1) 0.25% trypsin was used to digest cancer cells in a logarithmic growth phase to prepare a single-cell suspension, the concentration of cells was adjusted to 5×10^4/mL, and the adjusted suspension was inoculated into a 96-well culture plate with 100 μl per well;
(§6) (2) The culture plate was transferred into a 37° C. incubator with a saturated humidity and 5% of CO2 and cultured for 24 h; the compounds and the intermediates thereof obtained in embodiments 1-7 and the compound as represented by formula (IIIa) or the positive control anti-cancer drug with the concentration of 1-1000 μM/L were added to enable the final concentration to be 0.1-1500 μM/L. Control wells (only added with 200 μl of cell suspension) and drug-free blank control wells (containing the solvent of 0.01% DMSO) were set, each group included 8 wells, and the plate was placed into the 37° C. incubator with saturated humidity and 5% of CO2 for culturing;
(§7) (3) The 96-well plate was taken out at 48 h and 72 h after dosing, the original culture medium was carefully removed by suction, 100 μl of serum-free DMEM culture medium and 10 μl of MTT (5 mg/mL) solution were added in each well. The plate was continuously cultured for another 4 h and then the culture was terminated;
(§8) (4) The supernatant in the wells was carefully removed by suction, each well was added with 150 μl of DMSO and shaked at room temperature for 10-15 min to fully dissolve crystals.
(§9) (5) Colorimetric analysis: the wavelength was selected as 570 nm, the light absorbance (A value) of each well was determined on the microplate reader and the results were recorded; the experiment was repeated for three times;
(§10) (6) the experimental results were calculated according to the following formula: relative survival rate=(A value of each experimental group/A value of cell control group)×100%
(§11) Calculation of median-effect concentration (IC50, namely the drug concentration at which the inhibition rate is 50%, also known as half inhibitory concentration):
(§12) IC50 of the detected component was calculated by using a regression equation.

[3] = tested on: human liver cancer cells SMMC7721; test: MTT growth inhibition, SMMC7721 cells; assay type: cell-based; settings: SMMC-7721, S-7721 (SMMC7721), 72 h after treatment, read-out: Drug concentration (IC50) at which 50% cancer cells survived
Text: as §3, §4, §5, §6, §7, §8, §9, §10, §11, §12

[4] = tested on: human lung cancer cells A549; test: MTT growth inhibition, A549 cells; assay type: cell-based; settings: 72 h after treatment, read-out: Drug concentration (IC50) at which 50% cancer cells survived
Text: as §3, §4, §5, §6, §7, §8, §9, §10, §11, §12

[5] = tested on: Akt; test: Western Blotting, Akt level; assay type: cell-based; settings: human liver cancer cells, Lewis lung cancer cells and other cancer cell lines and tumor tissues, read-out: Effective concentration (IC50) for inhibition of Akt
Text: as §1, §2

[6] = tested on: human liver cancer cells HepG2; test: MTT growth inhibition, HepG2 cells; assay type: cell-based; settings: 72 h after treatment, read-out: Drug concentration (IC50) at which 50% cancer cells survived
Text: as §3, §4, §5, §6, §7, §8, §9, §10, §11, §12

[7] = tested on: mouse melanoma cells B16; test: MTT growth inhibition, B16 cells; assay type: cell-based; settings: Mus musculus, 72 h after treatment, read-out: Drug concentration (IC50) at which 50% cancer cells survived
Text: as §3, §4, §5, §6, §7, §8, §9, §10, §11, §12

[8] = tested on: human chronic leukemia cells K562; test: MTT growth inhibition, K562 cells; assay type: cell-based; settings: 72 h after treatment, read-out: Drug concentration (IC50) at which 50% cancer cells survived
Text: as §3, §4, §5, §6, §7, §8, §9, §10, §11, §12

[9] = tested on: p21; test: Western Blotting, increase of p21 level; assay type: cell-based; settings: liver cancer cells, Lewis lung cancer cells and other cancer cell lines and tumor tissue protein lysates, 48 h treatment, read-out: Effective concentration to increase p21 by 50%
Text: as §1, §2

[10] = tested on: human pancreatic cancer cells PANC-1 xenograft; test: In-vivo growth of PANC-1 xenografts in nude mice; design: species or system BALB/c nude mice; settings: Mus musculus, ip, vs DMSO solvent control, read-out: Curative effect (inhibition rate %) of tumor weight; for inhibition in vivo at 60 mg/kg: 60 mg/kg intraperitoneal once a day; for inhibition in vivo at 90 mg/kg: 90 mg/kg intraperitoneal once a day
Experimental: RPMI1640 and DMEM culture solutions: Hyclone Company; inactivated fetal bovine serum: Hyclone Company, preserved at −20° C.; trypsin: Amersco Company; and 0.4% trypan blue: Sigma Company;
(3) Observation of growth of tumors in nude mice: the activities (including food intake, traits of urine and stool, mental state and the like) of the nude mice and the tumor growth time and growth situation of the transplanted tumors were observed every day, the body weight and the size of the tumors were measured once every 2-3 days. The long diameter a and the short diameter b (mm) of each tumor were measured by a vernier caliper to calculate the volume, wherein the volume V=π1/2·ab^2 (mm^3);
(4) sacrifice of animals: the mice were anesthetized and photoed after treatment experiments; the nude mice were sacrificed by breaking neck, the tumor tissues were stripped under sterile conditions and the weight of the tumors was weighed; and the effects of the drugs on pathology and toxicity of the various organs and tissues were detected.

[11] = tested on: HDAC4; test: Western Blotting, HDAC4 level; assay type: cell-based; settings: human liver cancer cells, Lewis lung cancer cells and other cancer cell lines and tumor tissues, read-out: Effective concentration (IC50) for inhibition of HDAC4
Text: as §1, §2

[12] = tested on: highly metastatic Lewis lung cancer cell lines; test: MTT growth inhibition, LLC cells; assay type: cell-based, mouse; settings: Mus musculus, Lewis lung carcinoma, 72 h after treatment, read-out: Drug concentration (IC50) at which 50% cancer cells survived
Text: as §3, §4, §5, §6, §7, §8, §9, §10, §11, §12

SMILES	EC50 [1]	IC50 [2]	IC50 [3]	IC50 [4]	IC50 [5]	IC50 [6]	IC50 [7]	IC50 [8]	EC50 [9]	inhibition in vivo at 60 mg/kg [10]	inhibition in vivo at 90 mg/kg [10]	IC50 [11]	IC50 [12]
CCNC(=O)CCC(NC(=O)c1cc2cc(F)ccc2oc1=O)C(=O)OCC (stereo in doubt) [Compound Ie, (R)-2-(6-F-2-oxo-2H-benzopyran-3-carboxamido)-5-ethylamino-5-oxo-pentanoic acid ethyl ester]	< 100 µM	72 µM	61 µM	141 µM	< 160 µM	230 µM	230 µM	130 µM	< 100 µM	56.6%	64.6%	< 50 µM	110 µM
CCNC(=O)CCC(NC(=O)c1cc2cc([N+](=O)[O-])ccc2oc1=O)C(=O)OCC (stereo in doubt) [Compound If, (R)-2-(6-nitro-2-oxo-2H-benzopyran-3-carboxamido)-5-ethylamino-5-oxo-pentanoic acid ethyl ester]	< 65 µM	77 µM	61 µM	122 µM	< 90 µM	130 µM	280 µM	91 µM	< 65 µM	53.6%	67.3%	< 45 µM	100 µM
CCNC(=O)CC[C@H](N)C(=O)OC [Compound IIa, theanine methyl ester]		280 µM	230 µM	650 ± 30 µM		600 µM	450 µM	350 µM		33.4%	37.7%		100 µM
CCNC(=O)CC[C@H](N)C(=O)OCC [Compound IIb, theanine ethyl ester]		400 µM	400 µM	500 ± 30 µM		300 µM	500 µM	600 µM		32.3%	34.8%		300 µM
CCNC(=O)CCC(NC(=O)c1cc2ccccc2oc1=O)C(=O)OC (stereo not drawn) [Compound Ia, methyl 5-ethylamino-5-oxo-2-(2-oxo-2H-benzopyran-3-carboxamido)pentanoate]	< 125 µM	67 ± 30 µM	75 ± 30 µM	300 ± 60 µM	< 125 µM	250 µM	145 µM	248 µM	< 125 µM	55.8%	60.5%	< 65 µM	185 µM
